Values of other authors, collected in PMC10949855 (Journal of veterinary pharmacology and therapeutics, 2022).

Conditions: oral, dogs; ref KuKanich & KuKanich 2015; Matsui et al 1995; cited from earlier work

| SMILES | TMAX [h] |
| --- | --- |
| CN/C(=N/CCSCc1nc[nH]c1C)NC#N [cimetidine] | 1.8 |
| CN(C)CCCC1(c2ccc(F)cc2)OCc2cc(C#N)ccc21 (stereo not shown) [citalopram] | 1 |
| CC(=O)N1CCN(c2ccc(OCC3COC(Cn4ccnc4)(c4ccc(Cl)cc4Cl)O3)cc2)CC1 (stereo not shown) [ketoconazole] | 2 |
| O=C(N[C@H](CO)[C@H](O)c1ccc([N+](=O)[O-])cc1)C(Cl)Cl [chloramphenicol] | 1.3 |
